Like-named read-outs stand apart in the source and are kept apart here.
Key:
[1] = type: physicochemical; set-up: key to Fibril / Fibril Formation / TEM 2cat / Fibril: 1 = fibrils present; 0 non-fibrillar structures; settings: for Fibril / Fibril Formation: 1 mg/mL, uranyl acetate stain, qualitative
[2] = Zeta-potential measurement; type: physicochemical
Summary of the method: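 Peptides diluted from DMSO stock into PBS pH 7.4 to 1 mg/mL and aged 1 d at RT, then diluted into 1 mM aqueous KCl. Zeta potential derived from electrophoretic mobility via Smoluchowski; triplicates, averaged over two independent experiments.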

[3] = Turbidity, derived count rate of scattered light; type: physicochemical; settings: for Count Rate / kcps: derived count rate of scattered light at 633 nm, 173°, from zeta-potential measurement, 0.1 mg/mL in 1 mM KCl after 1 d at 1 mg/mL in PBS, turbidity / microscopic aggregation, mean of triplicate
Summary of the method: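 Samples: 1 mg/mL in PBS pH 7.4 (from DMSO), 1 d at RT, then diluted in 1 mM KCl immediately before measurement. Triplicates, two independent runs averaged.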

[4] = Turbidity, derived count rate of scattered light; type: physicochemical; settings: for Count Rate: derived count rate of scattered light (turbidity); for Log10 Count Rate: turbidity, derived count rate of scattered light, data of Figure 2D
[5] = FigS12 panel A, fibril category by TEM
[6] = TEM, 1 = fibrils present, 0 = non-fibrillar
[7] = TEM, 1 = fibrils present, 0 = non-fibrillar structures
[8] = zeta potential of peptide assemblies
[9] = zeta-potential of peptide, source data of Figure 2C
[10] = zeta-potential of the peptide assemblies, mean, Figure 3A source data
[11] = Log10 of derived count rate of scattered light (turbidity)
[12] = turbidity, Log10 of derived count rate of scattered light, Figure 3A source data
[13] = turbidity, log10 of derived count rate of scattered light
[14] = category: fibrils present or non-fibrillar
[15] = logarithm of count rate in kcps

KFKFQF
TEM 2cat ([1]; Fig S10 panel D): 0
Fibril ([1]; Fig S10 panel E): 0
TEM 2cat [1, 5]: 0
Fibril ([1]; FigS12 panel B, TEM): 0
Fibril / Fibril Formation ([1]; TEM): 0
Fibril [1, 6]: 0
Fibril [1, 7]: 0
Zeta-Pot. [2, 8]: -11.03
Zeta-Potential / mV [2, 9]: -8.745 mV
Zeta-Potential / mV [2, 10]: -11.03 mV
Log10 Count Rate [3, 11]: 2.263
Count Rate / kcps [3]: 183 kcps
Log10 Count Rate [3, 12]: 2.263
Log10 Count Rate [3, 13]: 2.263
Count Rate [4]: 183.4
Log10 Count Rate [4]: 2.263

KFKFQFNMWQ
TEM 2cat ([1]; Fig S10 panel D): 1
Fibril ([1]; Fig S10 panel E): 1
Fibril / Fibril Formation ([1]; TEM): 1
Fibril [1, 6]: 1
Fibril [1, 7]: 1
TEM 2cat [1, 14]: 1
Zeta-Pot. [2]: 25.4
Zeta-Potential / mV [2, 9]: 24.38 mV
Zeta-Potential / mV [2, 10]: 25.4 mV
Log10 Count Rate [3, 11]: 2.866
Count Rate / kcps [3]: 735 kcps
Log10 Count Rate [3, 15]: 2.866
Log10 Count Rate [3, 12]: 2.866
Log10 Count Rate [3, 13]: 2.866
Count Rate [4]: 734.6
Log10 Count Rate [4]: 2.866

KFKQFFNMWQ
TEM 2cat ([1]; Fig S10 panel D): 0
TEM 2cat [1, 5]: 0
Fibril ([1]; FigS12 panel B, TEM): 0
Fibril / Fibril Formation ([1]; TEM): 0
Fibril [1, 6]: 0
Fibril [1, 7]: 0
Zeta-Pot. [2]: -3.43
Zeta-Potential / mV [2, 9]: -2.615 mV
Zeta-Potential / mV [2, 10]: -3.43 mV
Log10 Count Rate [3, 11]: 2.375
Count Rate / kcps [3]: 237 kcps
Log10 Count Rate [3, 12]: 2.375
Log10 Count Rate [3, 13]: 2.375
Count Rate [4]: 236.9
Log10 Count Rate [4]: 2.375

KIKIKIKIYYYY
TEM 2cat ([1]; Fig S10 panel D): 0
Fibril / Fibril Formation ([1]; TEM): 0
Fibril [1, 6]: 0
Fibril [1, 7]: 0
TEM 2cat [1, 14]: 0
Zeta-Pot. [2, 8]: 13.3
Zeta-Potential / mV [2, 9]: 14.07 mV
Zeta-Potential / mV [2, 10]: 13.3 mV
Log10 Count Rate [3, 11]: 3.996
Count Rate / kcps [3]: 9918 kcps
Zeta Count Rate ([3]; peptides with TEM 2cat 0): 9918 kcp
Log10 Count Rate [3, 12]: 3.996
Log10 Count Rate [3, 13]: 3.996
Count Rate [4]: 9918
Log10 Count Rate [4]: 3.996

KIKIQI
TEM 2cat ([1]; Fig S10 panel D): 0
Fibril ([1]; Fig S10 panel E): 0
TEM 2cat [1, 5]: 0
Fibril ([1]; FigS12 panel B, TEM): 0
Fibril / Fibril Formation ([1]; TEM): 0
Fibril [1, 6]: 0
Fibril [1, 7]: 0
Zeta-Pot. [2, 8]: -5.63
Zeta-Potential / mV [2, 9]: -2.515 mV
Zeta-Potential / mV [2, 10]: -5.63 mV
Log10 Count Rate [3, 11]: 2.035
Count Rate / kcps [3]: 108 kcps
Log10 Count Rate [3, 12]: 2.035
Log10 Count Rate [3, 13]: 2.035
Count Rate [4]: 108.3
Log10 Count Rate [4]: 2.035

KIKIQIAMWQ
TEM 2cat ([1]; Fig S10 panel D): 1
Fibril / Fibril Formation ([1]; TEM): 1
Fibril [1, 6]: 1
Fibril [1, 7]: 1
TEM 2cat [1, 14]: 1
Zeta-Pot. [2, 8]: 11.3
Zeta-Potential / mV [2, 9]: 13.33 mV
Zeta-Potential / mV [2, 10]: 11.3 mV
Log10 Count Rate [3, 11]: 2.733
Count Rate / kcps [3]: 541 kcps
Log10 Count Rate [3, 12]: 2.733
Log10 Count Rate [3, 13]: 2.733
Count Rate [4]: 540.9
Log10 Count Rate [4]: 2.733

KIKIQIN
TEM 2cat ([1]; Fig S10 panel D): 1
Fibril / Fibril Formation ([1]; TEM): 1
Fibril [1, 6]: 1
Fibril [1, 7]: 1
TEM 2cat [1, 14]: 1
Zeta-Pot. [2, 8]: 3.34
Zeta-Potential / mV [2, 9]: 4.4 mV
Zeta-Potential / mV [2, 10]: 3.34 mV
Log10 Count Rate [3, 11]: 1.638
Count Rate / kcps [3]: 43 kcps
Log10 Count Rate [3, 15]: 1.638
Log10 Count Rate [3, 12]: 1.638
Log10 Count Rate [3, 13]: 1.638
Count Rate [4]: 43.43
Log10 Count Rate [4]: 1.638

KIKIQINAWQ
TEM 2cat ([1]; Fig S10 panel D): 1
Fibril / Fibril Formation ([1]; TEM): 1
Fibril [1, 6]: 1
Fibril [1, 7]: 1
TEM 2cat [1, 14]: 1
Zeta-Pot. [2, 8]: 13.1
Zeta-Potential / mV [2, 9]: 13.72 mV
Zeta-Potential / mV [2, 10]: 13.1 mV
Log10 Count Rate [3, 11]: 3.174
Count Rate / kcps [3]: 1494 kcps
Log10 Count Rate [3, 12]: 3.174
Log10 Count Rate [3, 13]: 3.174
Count Rate [4]: 1494
Log10 Count Rate [4]: 3.174
